From patent publication US9376425B2, “Heterocyclic compounds as MDM2 inhibitors for the treatment of cancer” (AMGEN INC., priority 2011, dated 2016)

Each molecule was assayed against T1, human MDM2 (GST-hMDM2 1-188), interaction with biotinylated-p53 (1-83) (Homo sapiens, UniProt Q00987) (assay: improved HTRF assay (HTRF2 assay), inhibition of HDM2-p53 interaction). Conditions: 0.2 nM GST-hMDM2, 0.5 nM biotinylated-p53, 100 mM KF.
T1 construct: Amino acid residues 1-188 of human MDM2 were expressed; made in house; host or cells: Escherichia coli
T1 sequence (Q00987 1-188): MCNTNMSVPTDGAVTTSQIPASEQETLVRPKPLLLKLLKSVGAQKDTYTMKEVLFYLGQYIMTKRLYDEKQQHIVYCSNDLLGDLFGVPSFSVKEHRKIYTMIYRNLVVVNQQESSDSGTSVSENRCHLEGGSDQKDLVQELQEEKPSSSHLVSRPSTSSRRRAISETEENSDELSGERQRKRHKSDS
Assay type: binding
In short: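 Time-resolved fluorescence (HTRF) read after >4 h equilibration with SA-XLent/anti-GST cryptate/KF detection reagents. Reaction: compound plus GST-hMDM2 for 20 min at room temperature, then E. coli-expressed biotinylated p53 residues 1-83 for 60 min, 2% DMSO final. Inhibition expressed versus nutlin-3.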

Going from CCC[C@@H](CS(=O)(=O)C(C)(C)C)N1C(=O)[C@@H](CC(=O)O)O[C@H](c2cccc(Cl)c2)[C@H]1c1ccc(Cl)cc1 (single isomer, unassigned) [Example 195, 2-((2R,5R,6R)-4-((S)-1-(tert-butylsulfonyl)pentan-2-yl)-6-(3-chlorophenyl)-5-(4-chlorophenyl)-3-oxomorpholin-2-yl)acetic acid or 2-((2S,5R,6R)-4-((S)-1-(tert-butylsulfonyl)pentan-2-yl)-6-(3-chlorophenyl)-5-(4-chlorophenyl)-3-oxomorpholin-2-yl)acetic acid] to CC[C@@H](CS(=O)(=O)N1CCC[C@@H]1C)N1C(=O)[C@@H](CC(=O)O)O[C@H](c2cccc(Cl)c2)[C@H]1c1ccc(Cl)cc1 (single isomer, unassigned) [Example 209, 2-((2R,5R,6R)-6-(3-chlorophenyl)-5-(4-chlorophenyl)-4-((S)-1-(((S)-2-methylpyrrolidin-1-yl)sulfonyl)butan-2-yl)-3-oxomorpholin-2-yl)acetic acid or 2-((2S,5R,6R)-6-(3-chlorophenyl)-5-(4-chlorophenyl)-4-((S)-1-(((S)-2-methylpyrrolidin-1-yl)sulfonyl)butan-2-yl)-3-oxomorpholin-2-yl)acetic acid], the IC50 rises from 3 nM to 7 nM (2.3-fold). The first is the more potent here.

CC[C@@H](CN(c1ccccc1F)S(=O)(=O)C1CC1)N1C(=O)[C@H](CC(=O)NS(=O)(=O)C(C)C)O[C@H](c2cccc(Cl)c2)[C@H]1c1ccc(Cl)cc1 (single isomer, unassigned) [Example 258, 2-((2S,5R,6R)-6-(3-chlorophenyl)-5-(4-chlorophenyl)-4-((S)-1-(N-(2-fluorophenyl)cyclopropanesulfonamido)butan-2-yl)-3-oxomorpholin-2-yl)-N-(isopropylsulfonyl)acetamide or 2-((2R,5R,6R)-6-(3-chlorophenyl)-5-(4-chlorophenyl)-4-((5)-1-(N-(2-fluorophenyl)cyclopropanesulfonamido)butan-2-yl)-3-oxomorpholin-2-yl)-N-(isopropylsulfonyl)acetamide] and CC(C)[C@@H](CN(c1ccccc1F)S(=O)(=O)C(C)C)N1C(=O)[C@@H](CC(=O)O)O[C@H](c2cccc(Cl)c2)[C@H]1c1ccc(Cl)cc1 (single isomer, unassigned) [Example 198, 2-((2R,5R,6R)-6-(3-chlorophenyl)-5-(4-chlorophenyl)-4-((S)-1-(N-(2-fluorophenyl)propan-2-ylsulfonamido)-3-methylbutan-2-yl)-3-oxomorpholin-2-yl)acetic acid or 2-((2S,5R,6R)-6-(3-chlorophenyl)-5-(4-chlorophenyl)-4-((S)-1-(N-(2-fluorophenyl)propan-2-ylsulfonamido)-3-methylbutan-2-yl)-3-oxomorpholin-2-yl)acetic acid] are the same in IC50: 1 nM for the first, 1 nM for the second.

First: C[C@H]1CCCN1S(=O)(=O)C[C@H](C1CC1)N1C(=O)[C@@H](CC(=O)O)O[C@H](c2cccc(Cl)c2)[C@H]1c1ccc(Cl)cc1 (single isomer, unassigned) [Example 296, 2-((2R,5R,6R)-6-(3-Chlorophenyl)-5-(4-chlorophenyl)-4-((S)-1-cyclopropyl-2-(((S)-2-methylpyrrolidin-1-yl)sulfonyl)ethyl)-3-oxomorpholin-2-yl)acetic acid or 2-((2S,5R,6R)-6-(3-chlorophenyl)-5-(4-chlorophenyl)-4-((S)-1-cyclopropyl-2-(((S)-2-methylpyrrolidin-1-yl)sulfonyl)ethyl)-3-oxomorpholin-2-yl)acetic acid]
Second: CC(C)(C)S(=O)(=O)C[C@H](C1CC1)N1C(=O)[C@@H](CC(=O)O)O[C@H](c2ccc(C#N)c(Cl)c2)[C@H]1c1ccc(Cl)cc1 (single isomer, unassigned) [Example 325, 2-((2R,5R,6R)-4-((S)-2-(tert-Butylsulfonyl)-1-cyclopropylethyl)-6-(3-chloro-4-cyanophenyl)-5-(4-chlorophenyl)-3-oxomorpholin-2-yl)acetic acid or 2-((2S,5R,6R)-4-((S)-2-(tert-butylsulfonyl)-1-cyclopropylethyl)-6-(3-chloro-4-cyanophenyl)-5-(4-chlorophenyl)-3-oxomorpholin-2-yl)acetic acid]
The IC50 of the first is lower: < 1 nM for the first, 4 nM for the second. The first is the more potent here.
